{
  "source": "patent US8916681B2",
  "about": "“Compound, use and method” (Medical Research Council, priority 2007, dated 2014)",
  "system": "GnRH release",
  "test": "GnRH release in the stalk-median eminence, microdialysis",
  "type": "in vivo, rhesus monkey",
  "conditions": "pubertal female rhesus monkeys; 10 nM infused over 30 min through microdialysis probe",
  "experimental": "Four female rhesus monkeys, born and raised in the Wisconsin National Primate Research Center, were used in this study. They were housed in pairs (cages 172×86×86 cm) in rooms with 12 h of light 12 h of darkness and controlled temperature (22° C.). The animals were fed a standard diet of Harlan 20% Protein Primate Diet twice each day, supplemented with fresh fruit several times per week. Water was available ad libitum. The protocol for this study was reviewed and approved by the Animal Care and Use Committee, University of Wisconsin, and all experiments were conducted under the guidelines established by the NIH and USDA.\nThe effects of peptide 234 on GnRH release were examined using the microdialysis method. This method allows collection of dialysate samples for GnRH measurement while peptide 234 was infused through the semi-permeable membrane, as described previously (25)′(24). Peptide 234 dissolved in CNS perfusion fluid was infused in the stalk median eminence region through the microdialysis probe for 30 min while dialysates were continuously collected. […]\nOn the day of experiment the monkey was placed in the stereotaxic apparatus under ketamine (15 mg/kg b.w.) and medetomidine (0.03-0.05 mg/kg b.w.) anesthesia. […] The x, y, and z coordinates for the S-ME were calculated using ventriculographs and the final radiographs taken during cranial pedestal implantation surgery. […]",
  "note": "Non-standard residues stand in square brackets, D forms with d. Residues, ends and D or L forms follow the SMILES beside them.",
  "data": [
    {"compound": "CC(=O)N[C@H](C)C(=O)N[C@@H](CC(N)=O)C(=O)N[C@@H](Cc1c[nH]c2ccccc12)C(=O)N[C@@H](CC(N)=O)C(=O)NCC(=O)N[C@@H](Cc1ccccc1)C(=O)NCC(=O)N[C@H](Cc1c[nH]c2ccccc12)C(=O)N[C@@H](CCCNC(=N)N)C(=O)N[C@@H](Cc1ccccc1)C(N)=O", "note": "[Peptide 234] (Ac-[dA]NWNGFG[dW]RF-NH2)", "values": [
      {"measurement": "GnRH pulses and mean GnRH levels", "value": "suppressed"}
    ]}
  ]
}
